“Also recorded” adds a separate entry of the source.
Key:
[1] = Phase 1 Part 2 (MAD) plasma PK; format: in vivo, human; conditions: for Cmax / AUC0-24 / Tmax / AUCtau / Ctau / t1/2: Part 2 MAD; for Cmax / AUC0-24 / AUCtau / Ctau: geometric mean (CV%); for Tmax / t1/2: median (min, max)
Description: Four sequential MAD cohorts were dosed.
For each cohort of Part 2, the daily dose of study drug was administered as a single dose (1 time daily or QD). Similar to Part 1 of the study, following a screening period to determine eligibility, subjects in each cohort entered the CRU on the […] of Day −1. Study eligibility was re-confirmed upon admission to the CRU, and subjects remained in the CRU overnight prior to dosing on Day 1. Subjects received a final morning dose of study drug on the last day of dosing. Subjects were discharged from the CRU following sample collection on Day 11. Dosage administration was supervised by study personnel and all subjects completed dosing per protocol. […] Subjects returned to the CRU on Day 23 (+2 days) for final follow-up safety assessments.
Serial venous blood samples were withdrawn via an indwelling cannula or by venipuncture according to the schedule in Tables 4 and 5 for Parts 1 and 2, respectively. Samples were collected into 4 mL lithium heparin tubes. The acceptable deviations from the nominal blood sampling times in Part 1 and Part 2 are as follows: the pre-dose blood sample will be taken ≤1 hour before dosing; 0 to 1 hour post-dose samples will be taken within +2 minutes of the nominal post-dose sampling time; >1 to 12 hours post-dose samples will be taken within +10 minutes of the nominal post-dose sampling time; and >12 hours post-dose samples will be taken within +30 minutes of the nominal post-dose sampling time if subjects are resident in the clinic. […]
In all derivations of PK parameters, 0 will be substituted for concentrations below the quantification limit (BQL) of the assay. Samples that are BQL but are between 2 samples with detectable concentrations will be excluded from PK analysis.
Dose proportionality was evaluated over all fasted doses within a study part based upon AUC0-inf (Part 1), AUCtau (Part 2), AUC0-t, and Cmax using the power model. The analysis was performed for Day 1 (Parts 1 and 2) and Day 7 (Part 2).
Dose proportionality for PK parameters was assessed by restricted maximum likelihood using SAS PROC MIXED (SAS STAT software, Cary N.C.). The mean slope was estimated from the power model and the corresponding 90% confidence interval (CI) calculated. Dose proportionality was also examined using an analysis of variance (ANOVA) method, where PK parameters for each dose were compared with a reference dose on a pair-wise basis. The ratio of geometric least squares (GLS) means and the corresponding 90% CI was estimated for each PK parameter of interest.
Accumulation ratios were calculated using AUC values from serial sampling after the first and last dose in Part 2. […] A mixed-effects model with a fixed effect for day and a random subject effect was used to estimate the difference between AUCtau and AUC0-t on the log scale.
Time to steady-state was evaluated in Part 2 using Ctrough (observed plasma concentration immediately before dosing) levels, where sufficient samples existed to determine steady state. The following timepoints were used in the analysis for once daily dosing: 24, 48, and 72 hours post dose (for Day 1) and pre-dose and 24 hours post dose on the last day of dosing (Day 7).

[2] = plasma protein binding, human; format: in vitro ADME; conditions: in vitro
[3] = nonclinical PK / toxicokinetic assessments; format: in vivo

Day 1 AUC0-24, geometric least square mean ([1]; 5 mg QD): 797.89 ng·h/mL
Day 7 AUCtau, geometric least square mean ([1]; 5 mg QD): 915.48 ng·h/mL
Day 1 AUC0-24, geometric least square mean ([1]; 10 mg QD): 1703.36 ng·h/mL
Day 7 AUCtau, geometric least square mean ([1]; 10 mg QD): 2022.93 ng·h/mL
Day 1 AUC0-24, geometric least square mean ([1]; 15 mg QD): 2204.47 ng·h/mL
Day 7 AUCtau, geometric least square mean ([1]; 15 mg QD): 2303.26 ng·h/mL
Day 1 AUC0-24, geometric least square mean ([1]; 20 mg QD): 3159.74 ng·h/mL
Day 7 AUCtau, geometric least square mean ([1]; 20 mg QD): 3184.88 ng·h/mL
median Tmax ([1]; Part 2, Days 1 and 7, all dosing cohorts): approximately 2.0 hours
time to steady state ([1]; Part 2, QD dosing, from trough concentrations): ≤ 3 days
accumulation ([1]; Part 2, each MAD cohort, 7 days QD): No accumulation or minimal accumulation
Cmax ([1]; Day 1, 5 mg QD oral, fasted): 105.0 (45.9) ng/ml
AUC0-24 ([1]; Day 1, 5 mg QD): 797.9 (37.8) ng · h/mL
Tmax ([1]; Day 1, 5 mg QD): 2.009 (1.01, 4.01) h
Cmax ([1]; Day 1, 10 mg QD oral, fasted): 217.0 (46.2) ng/ml
AUC0-24 ([1]; Day 1, 10 mg QD): 1703 (37.4) ng · h/mL
Tmax ([1]; Day 1, 10 mg QD): 2.009 (2.01, 3.01) h
Cmax ([1]; Day 1, 15 mg QD oral, fasted): 324.2 (34.9) ng/ml
AUC0-24 ([1]; Day 1, 15 mg QD): 2204 (39.0) ng · h/mL
Tmax ([1]; Day 1, 15 mg QD): 2.006 (1.01, 4.00) h
Cmax ([1]; Day 1, 20 mg QD oral, fasted): 464.1 (26.1) ng/ml
AUC0-24 ([1]; Day 1, 20 mg QD): 3160 (21.2) ng · h/mL
Tmax ([1]; Day 1, 20 mg QD): 2.007 (2.00, 3.00) h
AUCtau ([1]; Day 7, 5 mg QD): 915.5 (40.7) ng · h/mL
Cmax ([1]; Day 7, 5 mg QD): 117.0 (44.4) ng/ml
Ctau ([1]; Day 7, 5 mg QD): 10.70 (72.6) ng/ml
Tmax ([1]; Day 7, 5 mg QD): 2.007 (1.01, 3.03) h
t1/2 ([1]; Day 7, 5 mg QD): 8,846 (4.73, 25.1) h
AUCtau ([1]; Day 7, 10 mg QD): 2023 (29.7) ng · h/mL
Cmax ([1]; Day 7, 10 mg QD): 238.0 (22.6) ng/ml
Ctau ([1]; Day 7, 10 mg QD): 25.47 (68.1) ng/ml
Tmax ([1]; Day 7, 10 mg QD): 2.021 (2.01, 3.01) h
t1/2 ([1]; Day 7, 10 mg QD): 8.512 (6.09, 12.3) h
AUCtau ([1]; Day 7, 15 mg QD): 2303 (24.9) ng · h/mL
Cmax ([1]; Day 7, 15 mg QD): 333.5 (29.7) ng/ml
Ctau ([1]; Day 7, 15 mg QD): 19.02 (59.6) ng/ml
Tmax ([1]; Day 7, 15 mg QD): 2.006 (1,01, 3.00) h
t1/2 ([1]; Day 7, 15 mg QD): 7.534 (4.05, 12.2) h
AUCtau ([1]; Day 7, 20 mg QD): 3185 (24.4) ng · h/mL
Cmax ([1]; Day 7, 20 mg QD): 413.9 (14.9) ng/ml
Ctau ([1]; Day 7, 20 mg QD): 30.75 (66.5) ng/ml
Tmax ([1]; Day 7, 20 mg QD): 2.001 (1.00, 3.00) h
t1/2 ([1]; Day 7, 20 mg QD): 8.332 (4.61, 11.0) h
plasma protein binding [2]: ≥ 99.9%
Compound: COc1cc(-n2cnc(Nc3nc(N4CCC[C@H]4C(N)=O)nc4sccc34)c2)cc(OC)c1OC.O=C(O)CC(O)(CC(=O)O)C(=O)O [Compound A]
dose proportionality of plasma exposure ([1]; Part 2, multiple oral doses 5 to 20 mg, healthy subjects): exhibits dose proportionality; also recorded: approximately linear and dose proportional
dose proportionality of steady state Cmax ([1]; Part 2 multiple ascending oral dose cohorts (FIG. 7)): approximately linear and dose-proportional
dose proportionality of steady state AUCtau ([1]; Part 2 multiple ascending oral dose cohorts (FIG. 8)): approximately linear and dose-proportional
oral bioavailability ([3]; nonclinical PK studies): orally bioavailable
accumulation with repeated dosing ([3]; repeated dosing up to 28 days, toxicokinetic assessments): do not accumulate
